Measured values taken from PubChem BioAssay AID248 (DTP/NCI, 2004).
Where “and” joins values, the source holds several entries; their conditions need not be identical. Identical values can stand only once. Toxic doses and inconclusive results are not listed.

Test system: L1210 leukemia ip in BDF1 mice, survival T/C
Test: NCI In Vivo Anticancer Drug Screen. Data for tumor model L1210 Leukemia (intraperitoneal) in B6D2F1 (BDF1) mice
Settings: endpoint: mean survival time, higher = longer survival
Procedure, shortened: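 Each compound was tested against a transplantable tumor grown in mice. The endpoint was survival, with treated animals benchmarked against vehicle controls as a simple ratio.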

[1] = dose: 100.0 mg/kg/injection, schedule: Q01DX001 (ip), vehicle: other
[2] = dose: 200.0 mg/kg/injection, schedule: Q01DX001 (ip), vehicle: other
[3] = dose: 400.0 mg/kg/injection, schedule: Q01DX001 (ip), vehicle: other
[4] = dose: 100.0 mg/kg/injection, schedule: Q04DX003 (ip), vehicle: Klucel (hydroxypropylcellulose) (HPC)
[5] = dose: 200.0 mg/kg/injection, schedule: Q04DX003 (ip), vehicle: Klucel (hydroxypropylcellulose) (HPC)
[6] = dose: 400.0 mg/kg/injection, schedule: Q04DX003 (ip), vehicle: Klucel (hydroxypropylcellulose) (HPC)
[7] = dose: 12.5 mg/kg/injection, schedule: Q01DX009 (ip), vehicle: Klucel (hydroxypropylcellulose) (HPC)
[8] = dose: 25.0 mg/kg/injection, schedule: Q01DX009 (ip), vehicle: Klucel (hydroxypropylcellulose) (HPC)
[9] = dose: 50.0 mg/kg/injection, schedule: Q01DX009 (ip), vehicle: Klucel (hydroxypropylcellulose) (HPC)
[10] = dose: 100.0 mg/kg/injection, schedule: Q01DX009 (ip), vehicle: Klucel (hydroxypropylcellulose) (HPC)
[11] = dose: 200.0 mg/kg/injection, schedule: Q01DX009 (ip), vehicle: Klucel (hydroxypropylcellulose) (HPC)
[12] = dose: 400.0 mg/kg/injection, schedule: Q01DX009 (ip), vehicle: Klucel (hydroxypropylcellulose) (HPC)
[13] = dose: 200.0 mg/kg/injection, schedule: Q04DX002 (ip), vehicle: saline with Tween-80
[14] = dose: 25.0 mg/kg/injection, schedule: Q04DX003 (ip), vehicle: Klucel (hydroxypropylcellulose) (HPC)
[15] = dose: 50.0 mg/kg/injection, schedule: Q04DX003 (ip), vehicle: Klucel (hydroxypropylcellulose) (HPC)

Structure (SMILES): NC1CONC1=O (stereo not drawn)
- T/C (dose: 100.0 mg/kg/injection, schedule: Q01DX009 (ip), vehicle: saline with Tween-80): 101 % of control
- T/C (dose: 200.0 mg/kg/injection, schedule: Q01DX009 (ip), vehicle: saline with Tween-80): 98 % of control
- T/C (dose: 400.0 mg/kg/injection, schedule: Q01DX009 (ip), vehicle: saline with Tween-80): 98 % of control

Structure (SMILES): O=C(Nc1csnn1)c1ccco1
- T/C (dose: 50.0 mg/kg/injection, schedule: Q01DX001 (ip), vehicle: other): 104 % of control
- T/C [1]: 115 % of control
- T/C [2]: 104 % of control
- T/C [3]: 110 % of control

Structure (SMILES): CCOC(=O)c1cnc(SC)nc1NC(C(=O)OCC)C(=O)OCC
- T/C [4]: 93 % of control
- T/C [5]: 100 % of control
- T/C [6]: 95 % of control

Structure (SMILES): Cc1cc(O)c2c(c1)C(=O)C13C(=C2O)C(=O)C2C(O)C1C1C(O)C3C(=O)C3=C(O)c4c(O)cc(C)cc4C(=O)C321 (stereo not drawn)
- T/C (dose: 20.0 mg/kg/injection, schedule: Q04DX003 (ip), vehicle: saline with Tween-80): 107 % of control
- T/C (dose: 40.0 mg/kg/injection, schedule: Q04DX003 (ip), vehicle: saline with Tween-80): 100 % of control
- T/C (dose: 80.0 mg/kg/injection, schedule: Q04DX003 (ip), vehicle: saline with Tween-80): 102 % of control

Structure (SMILES): Cc1ccc(NCC(O)CN2CCCCC2)cc1 (stereo not drawn)
- T/C (dose: 10.0 mg/kg/injection, schedule: Q01DX009 (ip), vehicle: other): 104 % of control
- T/C (dose: 20.0 mg/kg/injection, schedule: Q01DX009 (ip), vehicle: other): 98 % of control
- T/C (dose: 40.0 mg/kg/injection, schedule: Q01DX009 (ip), vehicle: other): 92 % of control

Structure (SMILES): Cc1ccc(Nc2nc(N)nc(N)c2N)cc1
- T/C (dose: 6.0 mg/kg/injection, schedule: Q01DX Z (ip), vehicle: saline): 95 % of control
- T/C (dose: 12.0 mg/kg/injection, schedule: Q01DX Z (ip), vehicle: saline): 97 % of control

Structure (SMILES): Nc1[nH]c(=O)ncc1-c1cccc(Cl)c1
- T/C [7]: 103 % of control
- T/C [8]: 95 % of control
- T/C [9]: 100 % of control and 103 % of control

Structure (SMILES): CC(C)(O)CCCC1CCC2C3CCC4CCCCC4(C)C3CCC2(C)C1O (stereo not drawn)
- T/C (dose: 100.0 mg/kg/injection, schedule: Q04DX002 (ip), vehicle: DMSO): 86 % of control
- T/C (dose: 200.0 mg/kg/injection, schedule: Q04DX002 (ip), vehicle: DMSO): 96 % of control
- T/C (dose: 400.0 mg/kg/injection, schedule: Q04DX002 (ip), vehicle: DMSO): 92 % of control

Structure (SMILES): NC(CCO)C(=O)O (stereo not drawn)
- T/C (dose: 50.0 mg/kg/injection, schedule: Q04DX002 (ip), vehicle: saline): 96 % of control
- T/C (dose: 100.0 mg/kg/injection, schedule: Q04DX002 (ip), vehicle: saline): 96 % of control
- T/C (dose: 200.0 mg/kg/injection, schedule: Q04DX002 (ip), vehicle: saline): 100 % of control

Structure (SMILES): CC(C)CCCC(C)CC1CC(C)CCC1O (stereo not drawn)
- T/C [10]: 93 % of control
- T/C [4]: 98 % of control
- T/C [11]: 92 % of control
- T/C [5]: 94 % of control
- T/C [12]: 101 % of control
- T/C [6]: 96 % of control

Structure (SMILES): CCCCN=C(N)c1ccc(NC(=O)c2ccc(C(=O)Nc3ccc(C(N)=NCCCC)cc3)cc2)cc1
- T/C (dose: 6.0 mg/kg/injection, schedule: Q01DX001 (ip), vehicle: methylcellulose (MC)): 110 % of control
- T/C (dose: 6.0 mg/kg/injection, schedule: Q01DX Z (ip), vehicle: methylcellulose (MC)): 212 % of control
- T/C (dose: 12.0 mg/kg/injection, schedule: Q01DX Z (ip), vehicle: methylcellulose (MC)): 100 % of control
- T/C (dose: 15.0 mg/kg/injection, schedule: Q01DX001 (ip), vehicle: methylcellulose (MC)): 119 % of control

Structure (SMILES): COCC(=O)Nc1ccc(Cl)c(Cl)c1
- T/C (dose: 100.0 mg/kg/injection, schedule: Q01DX001 (ip), vehicle: carboxymethylcellulose (CMC)): 100 % of control
- T/C (dose: 200.0 mg/kg/injection, schedule: Q01DX001 (ip), vehicle: carboxymethylcellulose (CMC)): 92 % of control
- T/C (dose: 400.0 mg/kg/injection, schedule: Q01DX001 (ip), vehicle: carboxymethylcellulose (CMC)): 97 % of control

Structure (SMILES): CCOC(=O)C=C1CCP(C)CC1 (stereo not drawn)
- T/C (dose: 75.0 mg/kg/injection, schedule: Q01DX001 (ip), vehicle: carboxymethylcellulose (CMC)): 103 % of control
- T/C (dose: 150.0 mg/kg/injection, schedule: Q01DX001 (ip), vehicle: carboxymethylcellulose (CMC)): 94 % of control

Structure (SMILES): COC(=O)C(c1ccccc1)C(Br)C(=O)c1ccc(Cl)cc1 (stereo not drawn)
- T/C [10]: 92 % of control
- T/C [11]: 97 % of control
- T/C [12]: 94 % of control

Structure (SMILES): Cc1ccc(C(C)(C)CP(c2ccccc2)c2ccccc2)cc1
- T/C (dose: 25.0 mg/kg/injection, schedule: Q04DX002 (ip), vehicle: saline with Tween-80): 95 % of control
- T/C (dose: 50.0 mg/kg/injection, schedule: Q04DX002 (ip), vehicle: saline with Tween-80): 92 % of control
- T/C [13]: 89 % of control

Structure (SMILES): Cc1c2ccccc2c2ccccc2[n+]1[O-]
- T/C (dose: 100.0 mg/kg/injection, schedule: Q04DX002 (ip), vehicle: saline with Tween-80): 97 % of control
- T/C [13]: 101 % of control

Structure (SMILES): CCOC(=O)c1cnc(SC)nc1Nc1cccc(Cl)c1Cl
- T/C [4]: 100 % of control
- T/C [5]: 95 % of control
- T/C [6]: 94 % of control

Structure (SMILES): CC1(C(N)=O)CCCC2(C)c3ccccc3CCC12 (stereo not drawn)
- T/C (dose: 100.0 mg/kg/injection, schedule: Q04DX003 (ip), vehicle: saline with Tween-80): 92 % of control
- T/C (dose: 200.0 mg/kg/injection, schedule: Q04DX003 (ip), vehicle: saline with Tween-80): 95 % of control
- T/C (dose: 400.0 mg/kg/injection, schedule: Q04DX003 (ip), vehicle: saline with Tween-80): 94 % of control

Structure (SMILES): CO/C=C(\C)C(=O)NC(=O)NC1CCC(CO)C1 (stereo not drawn)
- T/C [1]: 96 % of control
- T/C [2]: 107 % of control
- T/C [3]: 98 % of control

Structure (SMILES): NC(=O)OCCCc1ccccc1
- T/C (dose: 12.5 mg/kg/injection, schedule: Q01DX009 (ip), vehicle: saline): 112 % of control
- T/C (dose: 25.0 mg/kg/injection, schedule: Q01DX009 (ip), vehicle: saline): 105 % of control
- T/C [14]: 101 % of control
- T/C (dose: 50.0 mg/kg/injection, schedule: Q01DX009 (ip), vehicle: saline): 103 % of control
- T/C [15]: 104 % of control
- T/C (dose: 100.0 mg/kg/injection, schedule: Q01DX009 (ip), vehicle: saline): 112 % of control
- T/C (dose: 200.0 mg/kg/injection, schedule: Q01DX009 (ip), vehicle: saline): 105 % of control
- T/C [5]: 98 % of control

Structure (SMILES): O=c1cc(Br)c(=O)c2cc(Br)cc(Br)c2[nH]1
- T/C [8]: 95 % of control
- T/C [9]: 98 % of control
- T/C [10]: 90 % of control
- T/C [4]: 98 % of control
- T/C [11]: 87 % of control
- T/C [5]: 106 % of control
- T/C [12]: 89 % of control
- T/C [6]: 88 % of control

Structure (SMILES): CC1C(c2ccccc2)OCCN1C (stereo not drawn)
- T/C (dose: 50.0 mg/kg/injection, schedule: Q04DX003 (ip), vehicle: saline): 108 % of control
- T/C (dose: 100.0 mg/kg/injection, schedule: Q01DX001 (ip), vehicle: saline): 93 % of control
- T/C (dose: 100.0 mg/kg/injection, schedule: Q04DX003 (ip), vehicle: saline): 108 % of control
- T/C (dose: 200.0 mg/kg/injection, schedule: Q01DX001 (ip), vehicle: saline): 104 % of control
- T/C (dose: 200.0 mg/kg/injection, schedule: Q04DX003 (ip), vehicle: saline): 104 % of control

Structure (SMILES): COc1cc2c(cc1OC(C)=O)C(OC(C)=O)CCCC2 (stereo not drawn)
- T/C (dose: 5.0 mg/kg/injection, schedule: Q01DX001 (ip), vehicle: saline): 109 % of control
- T/C (dose: 10.0 mg/kg/injection, schedule: Q01DX001 (ip), vehicle: saline): 109 % of control
- T/C (dose: 20.0 mg/kg/injection, schedule: Q01DX001 (ip), vehicle: saline): 97 % of control
- T/C (dose: 40.0 mg/kg/injection, schedule: Q01DX001 (ip), vehicle: saline): 105 % of control

Structure (SMILES): N=Nc1c(O)[nH]c2ccccc12
- T/C (dose: 100.0 mg/kg/injection, schedule: Q04DX002 (ip), vehicle: Klucel (hydroxypropylcellulose) (HPC)): 92 % of control
- T/C (dose: 200.0 mg/kg/injection, schedule: Q04DX002 (ip), vehicle: Klucel (hydroxypropylcellulose) (HPC)): 96 % of control
- T/C (dose: 400.0 mg/kg/injection, schedule: Q04DX002 (ip), vehicle: Klucel (hydroxypropylcellulose) (HPC)): 92 % of control

Structure (SMILES): C=C(Br)CNC(=O)C(C(F)(F)F)C(F)(F)F
- T/C [7]: 95 % of control
- T/C (dose: 12.5 mg/kg/injection, schedule: Q04DX003 (ip), vehicle: Klucel (hydroxypropylcellulose) (HPC)): 96 % of control
- T/C [8]: 97 % of control
- T/C [14]: 98 % of control
- T/C [9]: 95 % of control
- T/C [15]: 96 % of control
